Data on 4 molecules can be found in patent US12590091B2, “1H-pyrrolo[3,2-C]pyridine and 1H-pyrrolo[2,3-C]pyridine derivatives as TLR9 inhibitors for the treatment of fibrosis” (BRISTOL-MYERS SQUIBB COMPANY, priority 2020, dated 2026).

One assay concerns the target T1, human TLR9 (Homo sapiens, UniProt Q9NR96).
T1 construct: host or cells: HEK-Blue cells
T1 sequence (Q9NR96 26-1032): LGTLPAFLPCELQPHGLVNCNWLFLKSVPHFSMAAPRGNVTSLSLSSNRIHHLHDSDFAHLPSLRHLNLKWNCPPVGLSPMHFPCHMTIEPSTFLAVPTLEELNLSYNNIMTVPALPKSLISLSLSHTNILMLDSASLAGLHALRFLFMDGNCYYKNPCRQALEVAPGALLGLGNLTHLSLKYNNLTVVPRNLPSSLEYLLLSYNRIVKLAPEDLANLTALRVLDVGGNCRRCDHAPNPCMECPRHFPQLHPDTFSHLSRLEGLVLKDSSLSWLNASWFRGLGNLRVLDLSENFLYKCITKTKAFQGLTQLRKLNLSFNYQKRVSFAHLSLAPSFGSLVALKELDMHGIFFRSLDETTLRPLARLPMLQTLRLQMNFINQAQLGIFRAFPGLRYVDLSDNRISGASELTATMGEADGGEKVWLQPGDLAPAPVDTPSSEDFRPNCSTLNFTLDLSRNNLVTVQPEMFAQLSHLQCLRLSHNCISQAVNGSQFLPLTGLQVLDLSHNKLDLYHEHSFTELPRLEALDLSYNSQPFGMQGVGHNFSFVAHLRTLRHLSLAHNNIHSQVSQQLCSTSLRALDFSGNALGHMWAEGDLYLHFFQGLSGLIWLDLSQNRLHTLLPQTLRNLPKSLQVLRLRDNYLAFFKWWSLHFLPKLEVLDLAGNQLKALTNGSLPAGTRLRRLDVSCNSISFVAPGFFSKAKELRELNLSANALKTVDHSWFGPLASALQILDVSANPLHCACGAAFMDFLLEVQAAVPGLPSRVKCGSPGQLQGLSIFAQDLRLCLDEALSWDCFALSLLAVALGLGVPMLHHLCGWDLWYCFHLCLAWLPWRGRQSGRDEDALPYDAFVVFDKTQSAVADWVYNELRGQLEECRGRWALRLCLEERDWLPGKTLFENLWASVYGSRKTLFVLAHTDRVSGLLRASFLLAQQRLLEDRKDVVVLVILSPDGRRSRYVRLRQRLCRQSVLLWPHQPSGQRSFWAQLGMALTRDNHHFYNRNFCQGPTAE
The assay can be described thus: TLR9 inhibition reporter assay (HEK-Blue cells, SEAP reporter). It is filed as cell-based. The settings on record: HEK-Blue cells overexpressing human TLR9, stimulated with ODN2006 5 nM, 22 hour incubation. The procedure, abridged:
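HEK-Blue cells overexpressing human TLR9 (25,000 cells/well), NF-κB/AP-1-driven SEAP reporter. Compounds at 0.05 nM–50 μM final, 22 h at 37 °C, 5% CO2 with agonist. SEAP detected with HEK-Blue Detection medium; % inhibition versus agonist plus DMSO and known-inhibitor wells.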
On the technique in general: A reporter such as luciferase makes a cellular process visible.

A further assay concerns the target T2, human TLR8 (Homo sapiens, UniProt Q9NR97).
T2 construct: host or cells: HEK-Blue cells
T2 sequence (Q9NR97 27-1041): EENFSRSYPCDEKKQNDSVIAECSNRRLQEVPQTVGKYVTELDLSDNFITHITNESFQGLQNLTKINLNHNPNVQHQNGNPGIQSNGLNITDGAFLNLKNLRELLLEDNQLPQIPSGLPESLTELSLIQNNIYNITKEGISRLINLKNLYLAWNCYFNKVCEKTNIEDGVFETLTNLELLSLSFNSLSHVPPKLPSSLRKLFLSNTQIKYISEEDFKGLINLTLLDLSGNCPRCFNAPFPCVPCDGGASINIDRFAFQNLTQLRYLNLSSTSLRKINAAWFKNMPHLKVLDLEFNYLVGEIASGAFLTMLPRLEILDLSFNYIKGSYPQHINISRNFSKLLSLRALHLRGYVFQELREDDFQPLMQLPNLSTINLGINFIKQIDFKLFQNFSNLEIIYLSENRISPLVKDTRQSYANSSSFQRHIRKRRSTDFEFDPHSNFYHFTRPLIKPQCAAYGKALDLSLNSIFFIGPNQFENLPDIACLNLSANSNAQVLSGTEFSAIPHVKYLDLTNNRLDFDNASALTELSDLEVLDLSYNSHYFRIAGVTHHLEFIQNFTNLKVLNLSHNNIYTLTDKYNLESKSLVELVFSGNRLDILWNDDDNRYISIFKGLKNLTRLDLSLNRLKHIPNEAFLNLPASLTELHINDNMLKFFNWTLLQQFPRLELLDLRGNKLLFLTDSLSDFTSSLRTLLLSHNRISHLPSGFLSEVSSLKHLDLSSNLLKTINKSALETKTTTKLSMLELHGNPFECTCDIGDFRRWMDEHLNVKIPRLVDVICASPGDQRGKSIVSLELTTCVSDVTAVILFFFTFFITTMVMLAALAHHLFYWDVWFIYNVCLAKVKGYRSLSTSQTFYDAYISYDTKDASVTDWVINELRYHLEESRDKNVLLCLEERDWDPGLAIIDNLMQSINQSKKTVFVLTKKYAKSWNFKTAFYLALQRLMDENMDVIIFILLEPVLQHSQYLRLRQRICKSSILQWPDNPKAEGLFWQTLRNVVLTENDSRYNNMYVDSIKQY
Nature of the assay: TLR8 inhibition reporter assay (HEK-Blue cells, SEAP reporter). The format is cell-based. The settings on record: HEK-Blue cells overexpressing human TLR8, stimulated with R848 15.9 μM, 22 hour incubation. In short, it runs like this: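 Agonists used: gardiquimod 7.5 μM (TLR7), R848 15.9 μM (TLR8), ODN2006 5 nM (TLR9), added after 30 min room-temperature compound pre-treatment (0.05 nM–50 μM) of receptor-overexpressing HEK-Blue cells. SEAP reporter (NF-κB/AP-1 driven) read after 22 h at 37 °C; inhibition scaled between agonist+DMSO and reference-inhibitor wells.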

One may read the IC50 as the concentration that inhibits the measured activity by half. The low end stands for greater potency in that assay, the high end for weaker potency in that assay. `CC(C)N1CCN(Cc2ccc(-c3cc4c(cc(-c5ccc(S(C)(=O)=O)cc5)n4C)c(C(C)(C)O)n3)cc2)CC1` [Example 125, 2-(6-(4-((4-isopropylpiperazin-1-yl)methyl)phenyl)-1-methyl-2-(4-(methylsulfonyl)phenyl)-1H-pyrrolo[3,2-c]pyridin-4-yl)propan-2-ol]: the half-maximal inhibitory concentration (IC50) on human TLR9 was determined as 133 nM; against human TLR8, 11300 nM.
For the molecule `CC(C)(O)CN1CCN(Cc2ccc(-c3cc4c(cn3)cc(-c3ccc(S(C)(=O)=O)cc3)n4C3CC3)cc2)CC1` [Example 128, 1-(4-(4-(1-cyclopropyl-2-(4-(methylsulfonyl)phenyl)-1H-pyrrolo[3,2-c]pyridin-6-yl)benzyl)piperazin-1-yl)-2-methylpropan-2-ol], the results for the IC50 against human TLR9 and against human TLR8 were 115 nM and 7900 nM, respectively.
Take `CC(C)(O)CCN1CCN(Cc2ccc(-c3cc4c(cn3)cc(-c3ccc(S(C)(=O)=O)cc3)n4C3CC3)cc2)CC1` [Example 129, 4-(4-(4-(1-cyclopropyl-2-(4-(methylsulfonyl)phenyl)-1H-pyrrolo[3,2-c]pyridin-6-yl)benzyl)piperazin-1-yl)-2-methylbutan-2-ol]: the figures for the IC50 at human TLR9 and against human TLR8 were 118 nM and 5600 nM, respectively.
As to `CC(C)(O)CN1CC2CCC(C1)N2Cc1ccc(-c2cc3c(cn2)cc(-c2ccc(S(C)(=O)=O)cc2)n3C2CC2)cc1` [Example 130, 1-(8-(4-(1-cyclopropyl-2-(4-(methylsulfonyl)phenyl)-1H-pyrrolo[3,2-c]pyridin-6-yl)benzyl)-3,8-diazabicyclo[3.2.1]octan-3-yl)-2-methylpropan-2-ol], the values for the IC50 on human TLR9 and on human TLR8 were 92 nM and 6400 nM, respectively.
